Consider 2 molecules from patent publication US9820986B2, “Glycopeptide compositions” (TAIWAN HOPAZ CHEMS, MFG. CO., LTD., priority 2005, dated 2017).

The nature of data set [1]: Renal clearance of pamidronate. Particulars: in vivo.
In the next data set the test system is bone. Kind of data set: Bone scintographic imaging studies. Particulars: 99mTc-labeled, 300 μCi, i.v. The class given is in vivo, normal female Fischer 344 rats.
The test system of the next data set is tumor. Kind of data set: Tumor response to paclitaxel treatment, imaged with 99mTc-glycopeptide. The class given is in vivo, rats. Particulars: paclitaxel 40 mg/kg iv. As to the method:
To assess anti-angiogenic treatment response, rats were treated with paclitaxel (40 mg/kg,iv), followed by imaging with ^99mTc-glycopeptide on day 4. Tumor uptake and in situ hybridization (ISH) and TUNEL assays were conducted pre- and post-paclitaxel treatment.

For the molecule `NCCC(O)(P(=O)(O)O)P(=O)(O)O` [Pamidronate], the renal clearance result in data set [1] is given as “quick renal clearance”. For the same molecule, the bone targeting entry in the data set on bone was “targets bone poorly”.

For `CC(=O)O[C@H]1C(=O)[C@@]2(C)[C@H]([C@H](OC(=O)c3ccccc3)[C@]3(O)C[C@H](OC(=O)[C@H](O)[C@@H](NC(=O)c4ccccc4)c4ccccc4)C(C)=C1C3(C)C)[C@]1(OC(C)=O)CO[C@@H]1C[C@@H]2O` [paclitaxel], the tumor progression result in the data set on tumor (day 4, compared to 99mTc-glycopeptide baseline) is listed as “no marked tumor progression”. Besides, the tumor necrosis result in the data set on tumor (post-treatment) is “clearly seen”.
